Entries after “also recorded” stand apart in the source; their conditions may differ. A value given as a limit tells only on which side of the number the result lay.

The test system of assay [1] is BAL fluid cytokines and chemokines. Description: BAL fluid cytokines/chemokines (31 plex Luminex) in SARS CoV-2-infected K18-hACE2 mice. In kind it is in vivo, mouse. The procedure: Apadenoson treatment elicits cytokine and chemokine responses that are associated with a decrease in weight loss. To assess how apadenoson treatment may be delaying the onset of severe symptoms, mice were treated as before with either vehicle (saline) or apadenoson, delivered with a five-hour delay by osmotic pumps, then euthanized on day five post-infection.
BAL Cytokines: BAL fluid was collected with 700 μL of PBS and cells were removed via centrifugation. The BAL fluid was analyzed by a Luminex Magpix by the UVA Flow Cytometry Core facility using a Mouse 31 plex panel. Statistical changes in cytokine levels were analyzed using Welch's ANOVA followed by Dunnett's T3 multiple comparisons (Graphpad Prism 9.0). P values were adjusted for multiple testing using the Holm-Sidak method.

Assay [2] relates to SARS CoV-2. The experiment in a line: Viral lung titers (plaque assay) and viral burden (IHC) in K18-hACE2 mice. In kind it is in vivo, mouse. The procedure:
Viral Lung titers: Titers were determined as described in Moreau et al. (MOREAU et al., Am. J. Trop. Med. Hyg., (2020), 103:1215-1219). Briefly, lungs were homogenized in serum-free DMEM. Titers were determined by infecting Vero C1008, Clone E6 (ATCC CRL-1586) with serial dilutions of the homogenate. After a two-hour incubation, the diluted homogenates were replaced with a liquid overlay of DMEM, 2.5% FBS containing 1.2% Avicel PH-101 (Sigma Aldrich, St. Louis, MO) and incubated at 37° C., 5% CO2. After three days, the overlay was removed, wells were fixed with 10% formaldehyde, and stained with 0.1% crystal violet to visualize plaques. Plaques were counted and PFUs were calculated according to the following equation: Average # of plaques/dilution factor×volume of diluted virus added to the well.
Histology: Tissues were fixed in 10% formalin. To visualize virus in the lungs, slides were stained with SARS-CoV2 specific anti-nucleoprotein antibody (Cat. No. 9099, ProSci, Poway, CA) as per manufacturer's instructions and then scanned at 20× magnification. The percentage of lung tissue infected with virus was calculated (ImageJ, version 1.53K).

Assay [3] has as its system MHS cells. Description: RAGE shedding in alveolar macrophages (MHS): Western blot of sRAGE, immunofluorescence of RAGE. In kind it is cell-based, mouse. Particulars: GM6001 2 nM, regadenoson 100 nM; for PMA-induced shedding of cell membrane-anchored RAGE: PMA-treated MHS cells, ATL146e 10 nM. On the technique in general: In western blotting, separated proteins are transferred to a membrane and probed.

The test system of assay [4] is SARS-CoV-2 strain B.1.351. The assay is classed as in vivo, Golden Syrian hamster.
In assay [5] the test system is SARS CoV-2. The experiment in a line: Apadenoson in K18-hACE2 mouse model of COVID-19: survival, weight, clinical scores. Particulars: for mice survived (combined survival data): Alzet pump 1.44 ug/kg/h, 1250 PFU.
Protocol: K18-hACE2 mice, ranging in age from 17 to 30 weeks were divided into three groups. One group received saline (vehicle), another received apadenoson 18 hours before viral challenge (drug) and a third received apadenoson five hours post viral challenge (drug with delay). The mice were challenged intranasally with 1250 PFU SARS CoV-2. Mouse weight and clinical scores were recorded daily. Mice were euthanized when they met the criteria for euthanasia (see methods) or at the end of the experiment, which was day 12 post viral challenge.
Infection and treatment: Twenty-four hours prior to infecting Tg(K18-hACE2)2Prlmn (Jackson Laboratories) male mice with SARS CoV-2, primed 7-day Alzet® osmotic pumps (Durect, Cuperton, CA) containing saline or drug were implanted subcutaneously (MCCRAY et al., J. Virol., (2007), 81:813-821). In the drug with delay treatment group drug delivery was delayed by 24 hours by adding 2.5 cm long tubing to the pump. Apadenoson was delivered at a rate of 1.5 μg/kg/hr. Uninfected littermates received saline or drug with delay via osmotic pumps. Mice were challenged with 1250 plaque forming units (PFU) of Hong Kong/VM20001061/2020 (NR-52282, BEI Resources) via intranasal route under ketamine/xylazine anesthesia. Mice were examined twice daily for clinical symptoms and scored using the following criteria: weight loss (0-5, in 5% of initial weight loss increments), reduced activity (0-3), ruffled fur appearance and hunched posture (0-2), and an eye closure (0-2). Mice were euthanized when weight was <80% of initial weight or when they scored a maximum in two symptom categories. This experiment was repeated three times, with six animals per treatment group each time. […] Statistical differences in weight loss and clinical scores by treatment group were determined using linear mixed models accounting for day post-infection and the day the mouse died (Ime4 and ImerTest packages (BATES et al., J. Stat. Softw., (2015), 67; KUZNETSOVA et al., J. Stat. Softw., (2021), 82) in R (R Core Team 2021). For mice surviving to the end of the experiment (day 12 post-infection), day of death=15 was used. All mouse work was approved by the University's Institutional Animal Care and Use Committee and all procedures were performed in the University's certified animal Biosafety Level Three laboratory, which is fully accredited by the Association for the Assessment and Accreditation of Laboratory Animal Care, International (AAALAC).
In assay [6] the test system is COVID-19 patients. The following applies: cited from earlier work.
Where [7] appears, read: drug with delay treatment group.
Setting [8] is: PI day 7, compared to control group.
Where [9] appears, read: drug and drug with delay-treated groups.

On to `CCNC(=O)[C@H]1O[C@@H](n2cnc3c(N)nc(C#CC[C@H]4CC[C@H](C(=O)OC)CC4)nc32)[C@H](O)[C@@H]1O` [Apadenoson], for which the “cytokines/chemokines not different between uninfected, vehicle-infected control and drug with delay-infected mice” value in assay [1] (BAL fluid, day five post-infection) is listed as 18/31. In addition, in assay [1] (setting [7]), the “levels of eight cytokines and chemokines (MIG, G-CSF, Eotaxin, MIP1b, VEGF, INF-g, TNF-a, KC) in BAL fluid” value was “not significantly different from uninfected mice”. Further, the “IP-10 level in BAL fluid” value in assay [1] (drug with delay-infected group compared to vehicle, p=0.0223) is given as “statistically higher”. In addition, the “MCP-1 level in BAL fluid” value in assay [1] (drug with delay-infected group compared to vehicle, p=0.0351) was “statistically higher”. In assay [2] (both drug treatment groups), the “viral titers in lungs of surviving mice” value was “below the limit of detection”. The “average viral titer of lung homogenates” value in assay [2] (setting [7]) is “trended lower, but was not significant; also recorded: trended lower”. For the same molecule, the “viral burden in lungs by IHC staining” value in assay [2] (drug with delay treatment group, p=0.0012) was “significantly lower”. For the same molecule, in assay [3], the “PMA-induced shedding of cell membrane-anchored RAGE” value (shortened to “PMA-induced shedding”) is given as “partially inhibited”. The “PMA-induced shedding” value in assay [3] (listed as apadensoson) is on record as “suppressed the shedding of RAGE”. In assay [4] (setting [8]), the “albumin leakage into BAL” value was “slight decrease; also recorded: did not significantly” and the “plasma IL13” value was “slightly elevated; also recorded: did not significantly”. Moreover, the “time course of the disease or viral titer detected in throat swabs” value in assay [4] (RT-qPCR) is recorded as “did not significantly”. For the same molecule, the “plasma IL4” value in assay [4] (compared to control) was “depressed; also recorded: did significantly”. In assay [4] (daily weights, vs control group), the “decrease in weight gain” value was “did not significantly”. Further, in assay [4] (day 7), the “histologic distribution or severity of lung pathology” value is “did not significantly”. Moreover, in assay [4] (day 7, compared to control), the “plasma Transforming Growth Factor beta (TGFb)” value was “decreased; also recorded: did significantly” and the “spread of virus to olfactory bulb (brain)” value was “decreased; also recorded: did significantly”. In assay [4] (whole body plethysmography, PI day 7), the “respiratory physiology parameters (EF50, Rpef, Penh)” value was “did not significantly”. In assay [5] (setting [9]), the “clinical scores compared to vehicle” value is on record as “statistically significantly lower” and the “weight loss compared to vehicle” value is “less weight loss”. Moreover, the “weight loss and clinical scores on day five post-infection” value in assay [5] (drug with delay vs vehicle) is on record as “not statistically different between groups”. For the same molecule, the “mice survived (combined survival data)” value in assay [5] (drug with delay) was 5/12. Besides, the “survival curve compared to vehicle” value in assay [5] (drug with delay-treated group, p=0.0002) is “significantly different than vehicle”. Moreover, the “mice survived (combined survival data)” value in assay [5] (drug with no delay) is on record as 4/12. The “survival curve compared to vehicle” value in assay [5] (drug-treated group, p=0.066) is recorded as “did not differ significantly”.
Regarding `CNC(=O)[C@H](Cc1c[nH]c2ccccc12)NC(=O)[C@@H](CC(=O)NO)CC(C)C` [GM6001], the “sRAGE shedding on LPS-treated MHS cells” value in assay [3] (LPS 75 ng/ml, apadenoson 10 nM) is listed as “inhibited sRAGE shedding”. Besides, the “levels of sRAGE in the conditional media (Western blot)” value in assay [3] (PMA (20 nM)-treated MHS cells, 24 hours) was “decreased”. Further, in assay [3], the “PMA-induced shedding” value is given as “suppressed the shedding of RAGE; also recorded: partially blocked”.
On to `Nc1ncnc2c1ncn2[C@@H]1O[C@H](CO)[C@@H](O)[C@H]1O` [adenosine], for which the “increase in PaO2/FiO2-ratio” value in assay [6] (aerosolized, twice daily, in 13 out of 14 patients) was over 30%. Moreover, in assay [6] (inhaled adenosine group, 1/14, control group 11/52 (21%)), the death rate is given as 7%.

The record behind these values is patent publication US12115182B2, “Adenosine A2A agonists for the treatment of cytokine storm syndrome” (priority 2021, dated 2024).
